Experimental data as given in ChEMBL document CHEMBL1130020, “Synthesis and characterization of technetium-99m-labeled tropanes as dopamine transporter-imaging agents” (J Med Chem, 1997).

Biological target: Sodium-dependent dopamine transporter (Rattus norvegicus, UniProt P23977)
Assay: In vitro binding affinity to Dopamine transporter in rat striatal homogenates using [125I]IPT20 as the ligand

Chain of Sodium-dependent dopamine transporter (P23977 whole entry, looked up): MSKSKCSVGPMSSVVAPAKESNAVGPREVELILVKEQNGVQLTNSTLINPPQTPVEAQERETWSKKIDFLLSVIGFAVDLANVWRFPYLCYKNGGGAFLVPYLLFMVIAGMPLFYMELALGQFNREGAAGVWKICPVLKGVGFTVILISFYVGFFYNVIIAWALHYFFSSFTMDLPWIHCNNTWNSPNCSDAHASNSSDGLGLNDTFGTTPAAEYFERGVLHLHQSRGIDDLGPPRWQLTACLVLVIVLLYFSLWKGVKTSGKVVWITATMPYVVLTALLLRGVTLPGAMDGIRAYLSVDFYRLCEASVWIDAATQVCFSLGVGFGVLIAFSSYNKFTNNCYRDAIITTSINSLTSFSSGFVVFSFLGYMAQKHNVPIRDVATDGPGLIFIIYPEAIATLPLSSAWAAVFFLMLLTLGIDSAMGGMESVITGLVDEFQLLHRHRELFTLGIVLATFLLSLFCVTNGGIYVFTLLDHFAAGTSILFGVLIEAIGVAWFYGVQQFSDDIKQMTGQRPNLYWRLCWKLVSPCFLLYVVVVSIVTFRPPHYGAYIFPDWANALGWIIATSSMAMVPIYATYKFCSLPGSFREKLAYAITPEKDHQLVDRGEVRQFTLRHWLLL

## CN1C2CCC1[C@@H](CN(CCS)CCNCCS)[C@@H](c1ccc(Cl)cc1)C2 (stereo partly specified)
  Ki: 7 nM
